Measurements from US10233188B2, “CDK2/4/6 inhibitors” (priority 2016, dated 2019).

Biological target: CDK2/Cyclin E1 (Homo sapiens (Human), UniProt P24941)
Assay: biochemical
Settings: CDK2_Ki (nM), phosphorylated CDK2/Cyclin E1, 150 μM ATP, Morrison tight-binding fit
Protocol: The assay was initiated with the addition of ATP, following a fifteen minutes pre-incubation of enzyme and inhibitor at room temperature in the reaction mixture. The reaction was stopped after 45 minutes at room temperature by the addition of 50 μL of 80 mM EDTA, pH 7.5.

| SMILES | Ki [nM] |
| --- | --- |
| Cc1cc2cnc(NC3CCN(S(C)(=O)=O)CC3)nc2n([C@H]2CCC[C@H](O)C2)c1=O (single isomer, unassigned) [Example 33, (−)-8-[(1R*,3R*)-3-hydroxycyclohexyl]-6-methyl-2-{[1-(methylsulfonyl)piperidin-4-yl]amino}pyrido[2,3-d]pyrimidin-7(8H)-one] | 42.6 |
| CS(=O)(=O)N1CCC(Nc2ncc3ccc(=O)n([C@@H]4CC[C@@H](O)C4)c3n2)CC1 (single isomer, unassigned) [Example 54, (−)-8-[(1R*,3R*)-3-hydroxycyclopentyl]-2-{[1-(methylsulfonyl)piperidin-4-yl]amino}pyrido[2,3-d]pyrimidin-7(8H)-one] | 1.44 |
| CNS(=O)(=O)N1CCC(Nc2ncc3ccc(=O)n([C@H]4CCC[C@]4(C)O)c3n2)CC1 (single isomer, unassigned) [Example 57, (+)-4-({8-[(1R*,2R*)-2-hydroxy-2-methylcyclopentyl]-7-oxo-7,8-dihydropyrido[2,3-d]pyrimidin-2-yl}amino)-N-methylpiperidine-1-sulfonamide] | 5.21 |
| C[C@@]1(O)CCC[C@H]1n1c(=O)ccc2cnc(NC3CCN(S(=O)(=O)NC[C@@H]4CCCO4)CC3)nc21 (single isomer, unassigned) [Example 62, (−)-4-({8-[(1R*,2R*)-2-hydroxy-2-methylcyclopentyl]-7-oxo-7,8-dihydropyrido[2,3-d]pyrimidin-2-yl}amino)-N-[(2S)-tetrahydrofuran-2-ylmethyl]piperidine-1-sulfonamide] | 0.35 |
| C[C@]1(O)CCC[C@@H]1n1c(=O)ccc2cnc(NC3CCN(S(=O)(=O)NC[C@@H]4CCCO4)CC3)nc21 (single isomer, unassigned) [Example 63, (+)-4-({8-[(1R*,2R*)-2-hydroxy-2-methylcyclopentyl]-7-oxo-7,8-dihydropyrido[2,3-d]pyrimidin-2-yl}amino)-N-[(2S)-tetrahydrofuran-2-ylmethyl]piperidine-1-sulfonamide] | 4.51 |
| C[C@]1(O)CCC[C@@H]1n1c(=O)ccc2cnc(NC3CCN(S(=O)(=O)NC[C@H]4CCCO4)CC3)nc21 (single isomer, unassigned) [Example 65, (+)-4-({8-[(1R*,2R*)-2-hydroxy-2-methylcyclopentyl]-7-oxo-7,8-dihydropyrido[2,3-d]pyrimidin-2-yl}amino)-N-[(2R)-tetrahydrofuran-2-ylmethyl]piperidine-1-sulfonamide] | 4.85 |
| C[C@]1(O)CCC[C@@H]1n1c(=O)ccc2cnc(NC3CCN(S(=O)(=O)C(F)(F)F)CC3)nc21 (single isomer, unassigned) [Example 89, (+)-8-[(1R*,2R*)-2-hydroxy-2-methylcyclopentyl]-2-({1-[(trifluoromethyl)sulfonyl]piperidin-4-yl}amino)pyrido[2,3-d]pyrimidin-7(8H)-one] | 17.6 |
| CNS(=O)(=O)N1CCC(Nc2ncc3cc(C)c(=O)n([C@H]4CCC[C@]4(C)O)c3n2)CC1 (single isomer, unassigned) [Example 95, (+)-4-({8-[(1R*,2R*)-2-hydroxy-2-methylcyclopentyl]-6-methyl-7-oxo-7,8-dihydropyrido[2,3-d]pyrimidin-2-yl}amino)-N-methylpiperidine-1-sulfonamide] | 1.39 |
| Cc1cc2cnc(NC3CCN(S(=O)(=O)NC[C@@H]4CCCO4)CC3)nc2n([C@@H]2CCC[C@@]2(C)O)c1=O (single isomer, unassigned) [Example 100, (−)-4-({8-[(1R*,2R*)-2-hydroxy-2-methylcyclopentyl]-6-methyl-7-oxo-7,8-dihydropyrido[2,3-d]pyrimidin-2-yl}amino)-N-[(2S)-tetrahydrofuran-2-ylmethyl]piperidine-1-sulfonamide] | 0.27 |
| Cc1cc2cnc(NC3CCN(S(=O)(=O)NC[C@@H]4CCCO4)CC3)nc2n([C@H]2CCC[C@]2(C)O)c1=O (single isomer, unassigned) [Example 101, (+)-4-({8-[(1R*,2R*)-2-hydroxy-2-methylcyclopentyl]-6-methyl-7-oxo-7,8-dihydropyrido[2,3-d]pyrimidin-2-yl}amino)-N-[(2S)-tetrahydrofuran-2-ylmethyl]piperidine-1-sulfonamide] | 3.59 |
| Cc1cc2cnc(NC3CCN(S(=O)(=O)NC[C@H]4CCCO4)CC3)nc2n([C@@H]2CCC[C@@]2(C)O)c1=O (single isomer, unassigned) [Example 102, (−)-4-({8-[(1R*,2R*)-2-hydroxy-2-methylcyclopentyl]-6-methyl-7-oxo-7,8-dihydropyrido[2,3-d]pyrimidin-2-yl}amino)-N-[(2H)-tetrahydrofuran-2-ylmethyl]piperidine-1-sulfonamide] | 0.24 |
| Cc1cc2cnc(NC3CCN(S(=O)(=O)NC[C@H]4CCCO4)CC3)nc2n([C@H]2CCC[C@]2(C)O)c1=O (single isomer, unassigned) [Example 103, (+)-4-({8-[(1R*,2R*)-2-hydroxy-2-methylcyclopentyl]-6-methyl-7-oxo-7,8-dihydropyrido[2,3-d]pyrimidin-2-yl}amino)-N-[(2R)-tetrahydrofuran-2-ylmethyl]piperidine-1-sulfonamide] | 3.46 |
| CS(=O)(=O)N1CC[C@@H](Nc2ncc3cc(CCO)c(=O)n(C4CCCC4)c3n2)[C@H](F)C1 (single isomer, unassigned) [Example 157, (+)-8-cyclopentyl-2-{[(3S*,4S*)-3-fluoro-1-(methylsulfonyl)piperidin-4-yl]amino}-6-(2-hydroxyethyl)pyrido[2,3-d]pyrimidin-7(8H)-one] | 36 |
| COCCc1cc2cnc(N[C@@H]3CCN(S(C)(=O)=O)C[C@H]3F)nc2n(C2CCCC2)c1=O (single isomer, unassigned) [Example 159, (+)-8-cyclopentyl-2-{[(3S*,4S*)-3-fluoro-1-(methylsulfonyl)piperidin-4-yl]amino}-6-(2-methoxyethyl)pyrido[2,3-d]pyrimidin-7(8H)-one] | 95.2 |
| CS(=O)(=O)N1CC[C@@H](Nc2ncc3cc(CC(N)=O)c(=O)n(C4CCCC4)c3n2)[C@H](F)C1 (single isomer, unassigned) [Example 161, (+)-2-(8-cyclopentyl-2-{[(3S*,4S*)-3-fluoro-1-(methylsulfonyl)piperidin-4-yl]amino}-7-oxo-7,8-dihydropyrido[2,3-d]pyrimidin-6-yl)acetamide] | 135 |
| CC(=O)c1c(C)c2cnc(NC3CCN(S(C)(=O)=O)CC3)nc2n([C@H]2CCC[C@]2(C)O)c1=O (single isomer, unassigned) [Example 178, (+)-6-acetyl-8-[(1R*,2R*)-2-hydroxy-2-methylcyclopentyl]-5-methyl-2-{[1-(methylsulfonyl)piperidin-4-yl]amino}pyrido[2,3-d]pyrimidin-7(8H)-one] | 9.04 |
| C[C@@H]1[C@H](O)CC[C@H]1n1c(=O)c(CC(F)F)cc2cnc(NC3CCN(S(C)(=O)=O)CC3)nc21 (single isomer, unassigned) [Example 206, (−)-6-(2,2-difluoroethyl)-8-[(1R*,2S*,3R*)-3-hydroxy-2-methylcyclopentyl]-2-{[1-(methylsulfonyl)piperidin-4-yl]amino}pyrido[2,3-d]pyrimidin-7(8H)-one] | 0.57 |
| C[C@@H]1[C@H](O)CC[C@@H]1n1c(=O)ccc2cnc(NC3CCN(S(C)(=O)=O)CC3)nc21 (single isomer, unassigned) [Example 207, (+)-8-[(1R*,2R*,3S*)-3-hydroxy-2-methylcyclopentyl]-2-{[1-(methylsulfonyl)piperidin-4-yl]amino}pyrido[2,3-d]pyrimidin-7(8H)-one] | 5.05 |
